In data set [1] the test system is neuraminidase from Arthrobacter ureafaciens. As to the kind of experiment: in vitro enzymatic reaction with sialidase, change in fluorescence intensity over time. It is filed as biochemical. The note with it: for increase in the fluorescence in reaction with the sialidase: 1 μM probe, 0.01 U enzyme, 100 mM NaOAc 2 mM CaCl2 buffer pH 7.4, 37° C.; for change in the fluorescence in the absence of enzyme: identical reaction without enzyme, pH 7.4, 37° C. The method, then:
(§1) The optical property of the probe was acquired in a 0.2 M sodium phosphate buffer, a 100 mM NaOAc, 2 mM CaCl2, pH 6.5 buffer, or a 50 mM NaOAc, 2 mM CaCl2, 100 μg/mL BSA, pH 7.4 buffer. For an in vitro enzymatic reaction, the probe DMSO stock solution was diluted with a 100 mM NaOAc, 2 mM CaCl2, pH 7.4 buffer so that the final concentration was 1 μM. First, the fluorescence of the solution before adding a sialidase was measured every second (excitation wavelength: 490 nm, emission wavelength: 520 nm). Then, a neuraminidase from Arthrobacter ureafaciens (0.01 U) was used for this assay.
The fluorescence intensity of HMRef-Neu5Ac obtained in Synthesis Example 1 was changed through an enzymatic reaction with a neuraminidase (Arthrobacter ureafaciens), and the change in the fluorescence intensity of HMRef-Neu5Ac over time was examined. HMRef-Neu5Ac was dissolved in a 100 mM NaOAc 2 mM CaCl2 buffer (pH 7.4) to prepare a 1 μM solution, and 0.01 U of the enzyme was added 60 seconds after the start of measurement. At the time of measurement, the temperature was 37° C., and the concentration of an enzyme inhibitor (DANA) was 100 μM.
In the same manner as in the evaluation of HMRef-Neu5Ac, the reaction with a sialidase and the absorption spectrum at each pH were acquired for HMRef-S-Neu5Ac (FIGS. 3a and 3b).

The test system of data set [2] is neuraminidase (from Arthrobacter ureafaciens). As to the kind of experiment: dynamic (kinetic) parameters of the probes as neuraminidase substrates. It is filed as biochemical. The following applies: for Km / Vmax / kcat: 50 mM NaOAc, 2 mM CaCl2, 100 μg/mL BSA buffer (pH 6.5), 60 minutes; for kcat/Km relative to that of 4-MUNANA: fold larger than 4-MUNANA. The method, then: The probe was dissolved in 200 μL (total volume) of 50 mM NaOAc, 2 mM CaCl2, 100 μg/mL BSA buffer (pH 6.5) at various concentrations. A neuraminidase (from Arthrobacter ureafaciens, […]) was added, and the increase in fluorescence for 60 minutes was evaluated. Concerning the dynamic parameter Vmax and Km, the corrected data were calculated using the following formula.
V0 is the steady state speed of the probe substrate rotation by the neuraminidase, Vmax is the maximum speed (mM/min), X is the probe concentration in the reaction mixture (mM), and Km is the Michaelis constant (mM) at which the reaction speed is half of Vmax. Formula 1 was fitted to the data using KaleidaGraph 4.5.2 software (Synergy Software).
The dynamic parameters of HMRef-Neu5Ac and HMRef-S-Neu5Ac were determined in accordance with the method previously described by Govorkova et al., and compared to that of a commercial sialidase substrate, 4-MUNANA.

The nature of data set [3]: photochemical properties (absorption, emission, quantum yield, pKa, pKcycl). The note with it: for pKcycl: spiro ring formation. Format: physicochemical. As for the experimental part:
UV-vis spectra were obtained with a spectrophotometer, Shimadzu UV-2450.
Fluorescence spectra were obtained with Hitachi F-7000. The absolute fluorescence quantum efficiency was measured using an absolute PL quantum yield measuring apparatus, Quantuarus-QY (Hamamatsu Photonics K. K.). The probe was dissolved in dimethyl sulfoxide (DMSO, grade for fluorometry, DOJINDO LABORATORIES) to obtain a stock solution.
as §1

Data set [4] is described as follows: stability of the probe at various pH values (fluorescence intensity and absorption spectra over time). Format: physicochemical. The following applies: for stability: change in fluorescence intensity over time at various pH values: 0.2 M sodium phosphate buffer, 2 hours, ex/em 485 nm/535 nm; for change of absorption spectra 1.5 hours after dissolution: 0.2 M sodium phosphate buffers of various pH, immediately after vs 1.5 hours after dissolution. As for the experimental part:
HMRef-Neu5Ac was dissolved in 0.2 M sodium phosphate buffers having various pH values, and the absorption spectra were measured immediately after and 1.5 hours after the dissolution.
The stability of HMRef-Neu5Ac and that of HMRef-S-Neu5Ac were directly compared by recording the changes in fluorescence intensity over time at a pH within a range. The initial fluorescence intensity values of both the probes depend on the pH value according to the pKcycl values of the probes. That is, the lower the pH is, the larger the initial fluorescence intensity value is.
The measurement was performed in 0.2 M sodium phosphate buffer at 37° C. and measurements were taken every 5 minutes. In each measurement, excitation/emission wavelengths of 485 nm/535 nm were used.

Where [5] appears, read: pH 2, 0.2M sodium phosphate buffer.
[6] abbreviates: pH 7.4, 0.2M sodium phosphate buffer.

`CC(=O)N[C@H]1[C@H]([C@H](O)[C@H](O)CO)O[C@@](Oc2ccc(COc3ccc4c(c3)Oc3cc(NCC(F)(F)F)ccc3C43OCc4ccccc43)cc2)(C(=O)O)C[C@@H]1O` (some centres unmarked) [HMRef-S-Neu5Ac]: in data set [1], the “increase in the fluorescence in reaction with the sialidase” value is 130 fold and the “change in the fluorescence in the absence of enzyme” value is “remained at a constant low level”. Also, in data set [2], the Km (commonly the concentration of substrate that gives half-maximal velocity) was 11 µM; the Vmax – broadly, the top rate of the reaction or transport when substrate is in excess – amounted to 7.03 nM/s; the kcat – broadly, the number of substrate molecules converted per active site and unit of time at saturation – came to 10.7 s⁻¹; the “kcat/Km relative to that of 4-MUNANA” value was about 13 fold. For the same molecule, in data set [3] (setting [5]), the Absorption max. was found to be 484 nm, the Emission max. is on record as 522 nm and the “fluorescence quantum yield (absolute fluorescence quantum efficiency)” value (“fluorescence quantum yield” for short) came to 0.537. Besides, the “fluorescence quantum yield” value in data set [3] (setting [6]) was 0.271. In data set [3], this molecule returned a pKcycl of 5.3. Besides, the “stability: change in fluorescence intensity over time at various pH values” in data set [4] (37° C.) is “changed little over the time”. Also, in data set [4], the “change of absorption spectra 1.5 hours after dissolution” value is listed as “changed little”.

On to `CC(=O)N[C@@H]1[C@@H](O)C[C@](Oc2ccc3c(C)cc(=O)oc3c2)(C(=O)O)O[C@H]1C(O)[C@H](O)CO` (stereo partly drawn) [4-MUNANA, 2′-(4-methylumbelliferyl)-α-D-N-acetylneuraminic acid, reference compound], for which, in data set [2], the Michaelis-Menten constant (Km) stood at 37 µM, the maximal velocity (Vmax) was 1.73 nM/s and the catalytic constant (kcat) is 2.6 s⁻¹.

Regarding `CC(=O)N[C@H]1[C@H]([C@H](O)[C@H](O)CO)O[C@@](Oc2ccc3c(c2)Oc2cc(NCC(F)(F)F)ccc2C32OCc3ccccc32)(C(=O)O)C[C@@H]1O` (some centres unmarked) [HMRef-Neu5Ac], in data set [1], the “increase in the fluorescence in reaction with the sialidase” value was “up to 40 fold” and the “change in the fluorescence in the absence of enzyme” value was 3 fold. In addition, in data set [2], the Km amounted to 19 µM, the Vmax is 13.5 nM/s, the turnover number (kcat) worked out at 20.6 s⁻¹ and the “kcat/Km relative to that of 4-MUNANA” value is about 16 fold. Besides, in data set [3] (setting [5]), the Absorption max. is on record as 484 nm, the Emission max. was determined as 522 nm and the “fluorescence quantum yield” value is given as 0.650. Also, the “fluorescence quantum yield” value in data set [3] (setting [6]) is 0.323. This molecule displayed a pKcycl in data set [3] of 4.8. Also, in data set [4] (37° C.), the “stability: change in fluorescence intensity over time at various pH values” is on record as “clear instability at all the pH values”. Also, the “change of absorption spectra 1.5 hours after dissolution” value in data set [4] is “greatly changed in shape”. Moreover, the “time to complete hydrolysis” value in data set [4] (pH 2 and pH 4, 0.2 M sodium phosphate buffer, 37° C.) is “about 40 minutes”.

As for `O=c1ccc2c(-c3ccccc3CO)c3ccc(NCC(F)(F)F)cc3oc-2c1` [HMRef, reference compound], the pKa – broadly, the pH at which an ionisable group is half protonated – in data set [3] (0.2 M sodium phosphate buffer) was 4.4. Further, in data set [3] (setting [5]), the Absorption max. turned out to be 479 nm, the Emission max. worked out at 515 nm and the “fluorescence quantum yield” value is reported as 0.716. In data set [3] (setting [6]), the Absorption max. was 498 nm, the Emission max. is reported as 518 nm and the “fluorescence quantum yield” value worked out at 0.777. The pKcycl in data set [3] came to 10.2.

Source of the values: patent US20220186286A1, “FLUORESCENT PROBE FOR DETECTING ACTIVATION OF SIALIDASE” (The University of Tokyo, priority 2019, published 2022).
